In this data set the test system is CCRIS mutagenicity, Ames/micronucleus/aberration tests. As to the kind of experiment: CCRIS mutagenicity studies. The conditions noted are these: Test System: AMES SALMONELLA TYPHIMURIUM
Setting [1] is: Strain/Indicator: TA98, Metabolic Activation: NONE, Method: PREINCUBATION
Where [2] appears, read: Strain/Indicator: TA100, Metabolic Activation: NONE, Method: PREINCUBATION
Setting [3] is: Strain/Indicator: TA98, Metabolic Activation: NONE, Method: STANDARD PLATE.
Where [4] appears, read: Strain/Indicator: TA100, Metabolic Activation: NONE, Method: STANDARD PLATE.
The mark [5] stands for this setting: Strain/Indicator: TA1535, Metabolic Activation: NONE, Method: STANDARD PLATE.
The mark [6] stands for this setting: Strain/Indicator: TA1537, Metabolic Activation: NONE, Method: STANDARD PLATE.
Setting [7] is: Strain/Indicator: TA1538, Metabolic Activation: NONE, Method: STANDARD PLATE.
Where [8] appears, read: Strain/Indicator: TA98, Metabolic Activation: RAT, LIVER, S-9, AROCLOR 1254, Method: STANDARD PLATE.
The mark [9] stands for this setting: Strain/Indicator: TA100, Metabolic Activation: RAT, LIVER, S-9, AROCLOR 1254, Method: STANDARD PLATE.
Where [10] appears, read: Strain/Indicator: TA1535, Metabolic Activation: RAT, LIVER, S-9, AROCLOR 1254, Method: STANDARD PLATE.
[11] abbreviates: Strain/Indicator: TA1537, Metabolic Activation: RAT, LIVER, S-9, AROCLOR 1254, Method: STANDARD PLATE.

Active and inactive are the calls of the source. No rule for the calls is given here.

In the case of `COc1nncc2ccccc12`, the mutagenic call was “inactive; negative” under setting [1]; “inactive; negative” (Strain/Indicator: TA98, Metabolic Activation: RAT, LIVER, S-9, PCB, Method: PREINCUBATION); “inactive; negative” under setting [2]; “inactive; negative” (Strain/Indicator: TA100, Metabolic Activation: RAT, LIVER, S-9, PCB, Method: PREINCUBATION).
As for `COc1cccc2c(NCCCNCCCl)c3ccccc3nc12`, the mutagenic call under setting [3] is “active; positive”; the mutagenic call under setting [4] is “active; positive”; the mutagenic call under setting [5] is “inactive; negative”; the mutagenic call (Strain/Indicator: TA1536, Metabolic Activation: NONE, Method: STANDARD PLATE) is “active; positive”; the mutagenic call under setting [6] was “active; positive”; the mutagenic call under setting [7] was “active; positive”.
Turning to `CN(C)CCN(C)N=O`, the mutagenic call is “active; positive” (Strain/Indicator: TA1535, Metabolic Activation: HAMSTER, LIVER, S-9, Method: STANDARD PLATE) and “inactive; negative” (Strain/Indicator: TA1535, Metabolic Activation: RAT, LIVER, S-9, Method: STANDARD PLATE).
With `CC(/C=C(/C#N)c1ccc(Br)cc1)C(c1ccccc1)C(C#N)c1ccc(Br)cc1` (configuration not stated), the mutagenic call (Strain/Indicator: TA97A, Metabolic Activation: NONE, Method: STANDARD PLATE) is “inactive; negative”.
In the case of `Nc1ccc(Cl)c(C(F)(F)F)c1`, the mutagenic call is “inactive; negative” under setting [3]; “inactive; negative” under setting [8]; “inactive; negative” under setting [4]; “inactive; negative” under setting [9]; “inactive; negative” under setting [5]; “inactive; negative” under setting [10]. Besides, the mutagenic call was “inactive; negative” under setting [6]; “inactive; negative” under setting [11]; “inactive; negative” under setting [7]; “inactive; negative” (Strain/Indicator: TA1538, Metabolic Activation: RAT, LIVER, S-9, AROCLOR 1254, Method: STANDARD PLATE).
With `O=S(=O)(O)c1cccc2cccnc12`, the mutagenic call was “inactive; negative” under setting [3]; “inactive; negative” under setting [8]; “inactive; negative” under setting [4]; “inactive; negative” under setting [9]; “inactive; negative” under setting [5]; “inactive; negative” under setting [10]. For the same molecule, the mutagenic call was “inactive; negative” under setting [6] and “inactive; negative” under setting [11].
On to `CN(N=O)C(=O)c1c(N(C)N=O)ncn1C`, for which the mutagenic call under setting [3] was “inactive; negative”; the mutagenic call (Strain/Indicator: TA98, Metabolic Activation: S-9, Method: STANDARD PLATE) is “inactive; negative”; the mutagenic call under setting [4] is “active; positive”; the mutagenic call (Strain/Indicator: TA100, Metabolic Activation: S-9, Method: STANDARD PLATE) is “active; positive”; the mutagenic call (Strain/Indicator: TA102, Metabolic Activation: NONE, Method: STANDARD PLATE) was “active; positive”; the mutagenic call (Strain/Indicator: TA102, Metabolic Activation: S-9, Method: STANDARD PLATE) is “active; positive”. The mutagenic call reads like this: under setting [5], “active; positive”; (Strain/Indicator: TA1535, Metabolic Activation: S-9, Method: STANDARD PLATE) “active; positive”; under setting [6], “inactive; negative”; (Strain/Indicator: TA1537, Metabolic Activation: S-9, Method: STANDARD PLATE) “inactive; negative”.
As for `Cc1cccc2cccc([N+](=O)[O-])c12`, under setting [1], the mutagenic call was “active; positive”.
As for `COC(=O)Nc1nc2ccc(C(=O)c3ccc(F)cc3)cc2[nH]1`, the mutagenic call under setting [3] is “inactive; negative”, the mutagenic call under setting [8] is “inactive; negative”, the mutagenic call under setting [4] was “inactive; negative” and the mutagenic call under setting [9] is “inactive; negative”.
In the case of `C=C(C)C(=O)OCCCCCCCC`, the mutagenic call (Strain/Indicator: TA97, Metabolic Activation: HAMSTER, LIVER, S-9, AROCLOR 1254 (10 OR 30%), Method: PREINCUBATION) is “inactive; negative”; the mutagenic call (Strain/Indicator: TA97, Metabolic Activation: NONE, Method: PREINCUBATION) is “inactive; negative”; the mutagenic call (Strain/Indicator: TA97, Metabolic Activation: RAT, LIVER, S-9, AROCLOR 1254 (10 OR 30%), Method: PREINCUBATION) is “inactive; negative”; the mutagenic call (Strain/Indicator: TA98, Metabolic Activation: HAMSTER, LIVER, S-9, AROCLOR 1254 (10%), Method: PREINCUBATION) was “inactive; negative”; the mutagenic call (Strain/Indicator: TA98, Metabolic Activation: HAMSTER, LIVER, S-9, AROCLOR 1254 (30%), Method: PREINCUBATION) was “inactive; negative”; the mutagenic call under setting [1] was “inactive; negative”. Also, the mutagenic call by setting is: (Strain/Indicator: TA98, Metabolic Activation: RAT, LIVER, S-9, AROCLOR 1254 (10%), Method: PREINCUBATION) “inactive; negative”; (Strain/Indicator: TA98, Metabolic Activation: RAT, LIVER, S-9, AROCLOR 1254 (30%), Method: PREINCUBATION) “inactive; negative”; (Strain/Indicator: TA100, Metabolic Activation: HAMSTER, LIVER, S-9, AROCLOR 1254 (10 OR 30%), Method: PREINCUBATION) “inactive; negative”; under setting [2], “inactive; negative”; (Strain/Indicator: TA100, Metabolic Activation: RAT, LIVER, S-9, AROCLOR 1254 (10 OR 30%), Method: PREINCUBATION) “inactive; negative”; (Strain/Indicator: TA1535, Metabolic Activation: HAMSTER, LIVER, AROCLOR 1254 (10 OR 30%), Method: PREINCUBATION) “inactive; negative”. Besides, the mutagenic call was “inactive; negative” (Strain/Indicator: TA1535, Metabolic Activation: NONE, Method: PREINCUBATION); “inactive; negative” (Strain/Indicator: TA1535, Metabolic Activation: RAT, LIVER, S-9, AROCLOR 1254 (10 OR 30%), Method: PREINCUBATION); “inactive; negative” (Strain/Indicator: TA1537, Metabolic Activation: HAMSTER, LIVER, S-9, AROCLOR 1254 (10%), Method: PREINCUBATION); “inactive; negative” (Strain/Indicator: TA1537, Metabolic Activation: NONE, Method: PREINCUBATION); “inactive; negative” (Strain/Indicator: TA1537, Metabolic Activation: RAT, LIVER, S-9, AROCLOR 1254 (10%), Method: PREINCUBATION).
`O=S(=O)(O)c1ccc2cc(O)ccc2c1`: the mutagenic call by setting is: under setting [1], “inactive; negative”; (Strain/Indicator: TA98, Metabolic Activation: RAT, LIVER, S-9, PHENOBARBITAL, Method: PREINCUBATION) “inactive; negative”; under setting [2], “inactive; negative”; (Strain/Indicator: TA100, Metabolic Activation: RAT, LIVER, S-9, PHENOBARBITAL, Method: PREINCUBATION) “inactive; negative”.

For the origin of these results see PubChem BioAssay AID1259407 (Chemical Carcinogenesis Research Information System (CCRIS), 2018).
